Results from the supplement of paper PMC10307832.

Legend:
Experiment in all cases: relative viability (nuclei count vs DMSO), 5 days (fraction); higher = more cells survive
[1] = compound: Cn1c(=O)n(-c2ccc(C(C)(C)C#N)cc2)c2c3cc(-c4cnc5ccccc5c4)ccc3ncc21 [Dactolisib] + CC(C)C[C@H](NC(=O)[C@H](Cc1ccccc1)NC(=O)c1cnccn1)B(O)O [Bortezomib] (partner 0.002 µM)
How it was run: (§1)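 Lung cancer cell lines, seeded in 1536-well plates, were treated the following day by pin tool with a single drug or with five library-drug doses (not always all listed) in √10 steps on top of a fixed anchor-drug dose. Cells were fixed and nuclei stained in one step after 5 days, and nuclei were counted. Relative viability is the nuclei count for treated wells divided by that for vehicle wells, reported as medians of duplicate plates.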

[2] = compound: C1CCC(CC1)N(CCNCCC2=C3C(=C(C=C2)O)NC(=O)CO3)C(=O)CCNCCC4=CC(=C(C=C4)Cl)Cl [AZ505] + C[C@@H](Oc1cc(-c2cnn(C3CCNCC3)c2)cnc1N)c1c(Cl)ccc(F)c1Cl [Crizotinib] (partner 1 µM)
How it was run: as §1

[3] = compound: Cn1c(=O)n(-c2ccc(C(C)(C)C#N)cc2)c2c3cc(-c4cnc5ccccc5c4)ccc3ncc21 [Dactolisib] + O=C(CCCCCCC(=O)Nc1ccccc1)NO [Vorinostat] (partner 1 µM)
How it was run: as §1

[4] = compound: C1CCC(CC1)N(CCNCCC2=C3C(=C(C=C2)O)NC(=O)CO3)C(=O)CCNCCC4=CC(=C(C=C4)Cl)Cl [AZ505] + CC(=O)c1c(C)c2cnc(Nc3ccc(N4CCNCC4)cn3)nc2n(C2CCCC2)c1=O [Palbociclib] (partner 0.5 µM)
How it was run: as §1

Cell Line	relative viability ([1]; first compound 0.002 µM)	relative viability ([1]; first compound 0.006325 µM)	relative viability ([1]; first compound 0.02 µM)	relative viability ([1]; first compound 0.06325 µM)	relative viability ([1]; first compound 0.2 µM)	relative viability ([2]; first compound 0.08 µM)	relative viability ([2]; first compound 0.253 µM)	relative viability ([2]; first compound 0.8 µM)	relative viability ([2]; first compound 2.53 µM)	relative viability ([2]; first compound 8 µM)	relative viability ([3]; first compound 0.002 µM)	relative viability ([3]; first compound 0.006325 µM)	relative viability ([3]; first compound 0.02 µM)	relative viability ([3]; first compound 0.06325 µM)	relative viability ([3]; first compound 0.2 µM)	relative viability ([4]; first compound 0.08 µM)	relative viability ([4]; first compound 0.253 µM)	relative viability ([4]; first compound 0.8 µM)	relative viability ([4]; first compound 2.53 µM)	relative viability ([4]; first compound 8 µM)
ChaGo-K-1	0.977	1.07	0.861	1.04	0.755	1.17	1.04	1.12	0.958	1.15	0.724	0.821	0.719	0.623	0.757	0.823	0.999	1	0.92	0.91
EBC-1	0.625	0.523	0.373	0.216	0.191	0.21	0.198	0.178	0.203	0.184	–	–	–	–	–	–	–	–	–	–
EKVX	1.09	0.997	1.02	0.941	0.396	0.777	1.05	0.926	0.798	1.02	0.794	0.72	0.657	0.359	0.273	–	0.365	0.378	0.372	0.389
EMC-BAC-2	1.11	1.06	1.09	0.859	0.63	0.791	0.911	0.698	0.735	0.761	0.492	0.442	0.353	0.266	0.219	0.437	0.528	0.496	0.509	0.526
EPLC-272H	0.899	0.903	0.721	0.693	0.496	0.714	0.865	0.927	0.985	0.934	0.571	0.409	0.261	0.36	0.159	0.272	0.291	0.315	0.298	0.35
